Source: article PMC7651859, “Identification of 6-amino-1H-pyrazolo[3,4-d]pyrimidines with in vivo efficacy against visceral leishmaniasis” (RSC Medicinal Chemistry, 2020)
In brackets after ≈: the same amount, converted by molar mass.

Key:
[1] = Stability in mouse liver microsomes (intrinsic clearance); format: in vitro ADME; details: mouse liver microsomal intrinsic clearance, 0.5 μM
Experimental: Stability in Microsomes 10
Test compound (0.5 μM) was incubated with female CD1 mouse (Xenotech) liver microsomes and their action started with addition of excess NADPH (8 mg/mL 50 mM potassium phosphate buffer, pH 7.4). Immediately, at time zero, then at 3, 6, 9, 15, and 30 min, an aliquot (50 μL) of the incubation mixture was removed and mixed with acetonitrile (100 μL) to stop the reaction.
Internal standard was added to all samples, the samples centrifuged to sediment precipitated protein, and the plates then sealed prior to UPLC-MS/MS analysis using a Xevo TQs micro (Waters Corporation, USA). XLfit (IDBS, UK) was used to calculate the exponential decay and consequently the rate constant (k) from the ratio of the peak area of test compound to internal standard at each time point. The rate of intrinsic clearance (Cl i) of each test compound was then calculated using the equation Cl i (mL/min/g liver) = k × V × microsomal protein yield, where V (mL/mg protein) is the incubation volume/mg protein added and […]
microsomal protein yield is taken as 52.5 mg protein/g liver. Verapamil (0.5 μM) was used as a positive control to confirm acceptable assay performance. […]

[2] = CAD kinetic aqueous solubility; format: physicochemical; details: pH 7.4, pH7.4 phosphate buffered saline
Experimental: CAD Aqueous Solubility 11
5µl of 10mM DMSO stock solution is diluted to 100 µ l with pH7.4 phosphate buffered saline,
equilibrated for 1 hour at room temperature and filtered through Millipore MultiscreenHTS-PCF

THP-1 cells = assay: THP-1 host cell toxicity readout of the Ld InMac assay; format: cell-based; details: Homo sapiens; host THP-1 cells; mean of n ≥ 3; read-out: THP-1 pEC50 (converted)
Description: (§1) For the identification of DDD853651/GSK3186899, which contained a trans-1,4-cyclohexyldiamine, a key strategy was to optimise the balance between potency in the intracellular Leishmania assay (L. donovani in THP-1 cells, referred to as Ld InMac assay[9]) and solubility.[10] In that case, we focused on 2 (Table 1), where the sulfonamide was required for potency but was poorly soluble. […] To this end, we examined a 4-aminopiperidine central unit with both sulfonamide and amide substituents (Table 1). […] We therefore selected 4 as a suitable start-point for further chemistry. […] We noted that either lengthening the linker to the aromatic ring, or removing it, led to a loss of activity (6 and 7 respectively).
(§2) Intramacrophage Leishmania donovani Assay

L. donovani amastigotes = assay: Ld InMac intramacrophage Leishmania donovani assay; format: cell-based; details: for EC50: Leishmania donovani, L. donovani amastigotes in THP-1 cells, mean of n ≥ 3, read-out: Ld InMac pEC50 (converted); for loss of potency (less active) versus comparator compound: versus matched comparator
Description: as §1, §2

Row | SMILES | Cli mouse [1] | solubility at 1 h [2] | EC50 (THP-1 cells) | EC50 (L. donovani amastigotes) | loss of potency (less active) versus comparator compound (L. donovani amastigotes; Ld InMac) | more active than comparator compound (L. donovani amastigotes; Ld InMac, 4 versus 3)
1 | O=C(Cc1ccc(F)c(F)c1)N1CCC(Nc2ncc3c(C4CCOCC4)n[nH]c3n2)CC1 [Compound 47] | 3.1 ml min^–1 g^–1 | ≥ 429 µM | > 50.1 µM | 1 µM | – | –
2 | CC(C)Cc1n[nH]c2nc(NC3CCN(C(=O)Cc4ccc(Cl)cc4Cl)CC3)ncc12 [Compound 9] | 30 ml min^–1 g^–1 | 26 µM (≈ 12 µg/mL) | > 50.1 µM | 10 µM | – | –
3 | O=C(Cc1ccc(F)cc1F)N1CCC(Nc2ncc3c(N4CCOCC4)n[nH]c3n2)CC1 [Compound 15] | 2 ml min^–1 g^–1 | 14 µM (≈ 6.4 µg/mL) | > 50.1 µM | 0.794 µM | – | –
4 | O=C(CC1CC1)N1CCC(Nc2ncc3c(N4CCOCC4)n[nH]c3n2)CC1 [Compound 46] | – | – | > 50.1 µM | 15.8 µM | – | –
5 | CC(C)Cc1noc2nc(NC3CCN(C(=O)Cc4ccc(F)cc4F)CC3)ncc12 [Compound 25] | – | – | > 50.1 µM | > 50.1 µM | > 10 fold | –
6 | O=C(Cc1ccc(F)cc1F)N1CCC[C@H](Nc2ncc3c(-c4ccccn4)n[nH]c3n2)C1 [Compound 29] | – | – | > 50.1 µM | 12.6 µM | – | –
7 | O=C(Cc1ccc(F)cc1F)N1CCC(Nc2ncc3c(C4CCOCC4)n[nH]c3n2)CC1 [Compound 13] | 0.5 ml min^–1 g^–1 | 78 µM (≈ 35.6 µg/mL) | > 50.1 µM | 1 µM | – | –
8 | COc1ccccc1-c1n[nH]c2nc(OC3CCN(C(=O)Cc4ccc(F)cc4F)CC3)ncc12 [Compound 23] | – | – | > 50.1 µM | 20 µM | > 10 fold | –
9 | COc1ccccc1-c1n[nH]c2nc(NC3CCN(C(=O)N4CCOCC4)CC3)ncc12 [Compound 40] | 2 ml min^–1 g^–1 | 79 µM (≈ 34.6 µg/mL) | > 50.1 µM | 2 µM | – | –
10 | O=C(Cc1ccc(F)cc1F)N1CCC[C@@H](Nc2ncc3c(-c4ccccn4)n[nH]c3n2)C1 [Compound 30] | – | – | > 50.1 µM | > 50.1 µM | – | –
11 | COc1ccccc1-c1n[nH]c2nc(N[C@H]3CCC[C@H](NC(=O)Cc4ccc(F)cc4F)C3)ncc12 [Compound 32] | – | – | 31.6 µM | 15.8 µM | – | –
12 | O=C(Cc1ccc(F)cc1F)N1CCC(Nc2ncc3c(-c4ccccc4)n[nH]c3n2)CC1 [Compound 17] | 7.2 ml min^–1 g^–1 | < 1 µM | > 50.1 µM | 0.316 µM | – | –
13 | CC(C)Cc1n[nH]c2nc(NC3CCN(S(=O)(=O)Cc4ccccc4)CC3)ncc12 [Compound 5] | >50 ml min^–1 g^–1 | 10 µM (≈ 4.29 µg/mL) | > 50.1 µM | 12.6 µM | > 10 fold | –
14 | CC(C)(C)Cc1n[nH]c2nc(NC3CCN(C(=O)Cc4ccc(F)cc4F)CC3)ncc12 [Compound 11] | 22.0 ml min^–1 g^–1 | 27 µM (≈ 11.9 µg/mL) | > 50.1 µM | > 50.1 µM | – | –
15 | CC(C)(CNC(=O)Cc1ccc(F)cc1F)Nc1ncc2c(-c3ccccn3)n[nH]c2n1 [Compound 36] | – | – | > 50.1 µM | > 50.1 µM | – | –
16 | O=C(Cc1ccc(F)cc1F)N1CCC(Nc2ncc3c(C4CC4)n[nH]c3n2)CC1 [Compound 12] | 5.0 ml min^–1 g^–1 | 39 µM (≈ 16.1 µg/mL) | > 50.1 µM | 1.26 µM | – | –
17 | O=C(CC1CC1)N1CCC(Nc2ncc3c(-c4ccccn4)n[nH]c3n2)CC1 [Compound 45] | – | ≥ 392 µM | > 50.1 µM | 5.01 µM | – | –
18 | CC(C)Cc1nn(C)c2nc(NC3CCN(C(=O)Cc4ccc(F)cc4F)CC3)ncc12 [Compound 24] | – | – | > 50.1 µM | > 50.1 µM | > 10 fold | –
19 | CC(C)Cc1n[nH]c2nc(NC3CCN(C(=O)Cc4ccccc4)CC3)ncc12 [Compound 4] | 18 ml min^–1 g^–1 | 59 µM (≈ 23.2 µg/mL) | > 50.1 µM | 7.94 µM | – | > 10 fold
20 | CC(C)Cc1n[nH]c2nc(NC3CCN(C(=O)CCc4ccccc4)CC3)ncc12 [Compound 6] | – | – | > 50.1 µM | 20 µM | – | –
21 | O=C(Cc1ccc(F)cc1F)N1CCC(Nc2ncc3c(-c4ccccn4)n[nH]c3n2)CC1 [Compound 18] | 6.7 ml min^–1 g^–1 | 23 µM (≈ 10.3 µg/mL) | > 50.1 µM | 0.794 µM | – | –

Row | SMILES | Cli mouse [1] | solubility at 1 h [2] | EC50 (THP-1 cells) | EC50 (L. donovani amastigotes) | loss of potency (less active) versus comparator compound (L. donovani amastigotes; Ld InMac) | more active than comparator compound (L. donovani amastigotes; Ld InMac, 4 versus 3)
22 | COc1ccccc1C(=O)c1cnc(NC2CCN(C(=O)Cc3ccc(F)cc3F)CC2)nc1N [Compound 27] | – | – | 10 µM | 6.31 µM | – | –
23 | COc1ccccc1-c1n[nH]c2nc(NC3(C)CCN(C(=O)Cc4ccc(F)cc4F)CC3)ncc12 [Compound 33] | – | – | 39.8 µM | 3.98 µM | – | –
24 | C[C@@H]1[C@H](O)[C@@H](C)/C=C/C=C/C=C/C=C/C=C/C=C/C=C/[C@H](O[C@@H]2O[C@H](C)[C@@H](O)[C@H](N)[C@@H]2O)C[C@@H]2O[C@](O)(C[C@@H](O)C[C@@H](O)[C@H](O)CC[C@@H](O)C[C@@H](O)CC(=O)O[C@H]1C)C[C@H](O)[C@H]2C(=O)O [amphotericin B, reference compound] | – | – | – | 0.2 µM | – | –
25 | O=C(Cc1ccc(F)cc1F)N1CCC(CNc2ncc3c(-c4ccccn4)n[nH]c3n2)CC1 [Compound 34] | – | – | > 50.1 µM | > 50.1 µM | – | –
26 | CC(C)Cc1n[nH]c2nc(NC3CCN(C(=O)C(C)c4ccccc4)CC3)ncc12 (stereo not shown) [Compound 10] | – | 140 µM (≈ 56.9 µg/mL) | > 50.1 µM | 5.01 µM | – | –
27 | CCOC(=O)N1CCC(Nc2ncc3c(-c4ccccc4OC)n[nH]c3n2)CC1 [Compound 38] | 14 ml min^–1 g^–1 | 24 µM (≈ 9.51 µg/mL) | 39.8 µM | 0.501 µM | – | –
28 | COc1ncccc1-c1n[nH]c2nc(NC3CCN(C(=O)Cc4ccc(F)cc4F)CC3)ncc12 [Compound 21] | 15 ml min^–1 g^–1 | 25 µM (≈ 12 µg/mL) | > 50.1 µM | 0.0794 µM | – | –
29 | CC(C)Cc1n[nH]c2nc(N(C)C3CCN(C(=O)Cc4ccc(F)cc4F)CC3)ncc12 [Compound 22] | – | – | > 50.1 µM | > 50.1 µM | > 10 fold | –
30 | COc1ccccc1-c1n[nH]c2nc(NC3CCN(C(=O)Cc4ccc(F)c(F)c4)CC3)ncc12 [Compound 43] | 6.3 ml min^–1 g^–1 | 53 µM (≈ 25.4 µg/mL) | 15.8 µM | 0.0251 µM | – | –
31 | Cn1nccc1-c1n[nH]c2nc(NC3CCN(C(=O)Cc4ccc(F)cc4F)CC3)ncc12 [Compound 19] | 3.3 ml min^–1 g^–1 | 30 µM (≈ 13.6 µg/mL) | 20 µM | 3.16 µM | 10 fold | –
32 | COc1ccccc1-c1n[nH]c2nc(N[C@H]3CCC[C@@H](NC(=O)Cc4ccc(F)cc4F)C3)ncc12 [Compound 31] | – | – | 25.1 µM | 31.6 µM | – | –
33 | COc1ccccc1C(=O)c1cnc(NC2CCN(C(=O)Cc3ccc(F)cc3F)CC2)nc1 [Compound 28] | – | – | > 50.1 µM | 6.31 µM | – | –
34 | CC(C)Cc1n[nH]c2nc(N[C@H]3CC[C@H](NC(=O)Cc4ccccc4)CC3)ncc12 [Compound 3] | – | 51 µM (≈ 20.7 µg/mL) | > 50.1 µM | > 50.1 µM | – | –
35 | CC(C)Oc1n[nH]c2nc(NC3CCN(C(=O)Cc4ccc(F)cc4F)CC3)ncc12 [Compound 16] | – | 33 µM (≈ 14.2 µg/mL) | > 50.1 µM | 6.31 µM | – | –
36 | COc1ccccc1-c1n[nH]c2nc(NC3CCN(C(=O)OCc4ccccc4)CC3)ncc12 [Compound 39] | 9 ml min^–1 g^–1 | – | > 50.1 µM | 0.398 µM | – | –
37 | O=C(Cc1ccc(F)cc1F)N1CCC(Nc2ncc3c(CN4CCOCC4)n[nH]c3n2)CC1 [Compound 14] | <0.5 ml min^–1 g^–1 | – | > 50.1 µM | 25.1 µM | – | –
38 | COc1ccccc1-c1n[nH]c2nc(NCC3CN(C(=O)Cc4ccc(F)cc4F)C3)ncc12 [Compound 35] | – | – | > 50.1 µM | > 50.1 µM | – | –
39 | O=C(CC1CC1)N1CCC(Nc2ncc3c(C4CCOCC4)n[nH]c3n2)CC1 [Compound 44] | 0.8 ml min^–1 g^–1 | ≥ 496 µM | > 50.1 µM | 7.94 µM | – | –
40 | CC(C)Cc1n[nH]c2nc(NC3CCN(C(=O)Cc4ccc(F)cc4F)CC3)ncc12 [Compound 8] | 12 ml min^–1 g^–1 | 26 µM (≈ 11.1 µg/mL) | > 50.1 µM | 1.58 µM | – | –
41 | CCCCCCCCCCCCCCCCOP(=O)([O-])OCC[N+](C)(C)C [miltefosine, reference compound] | – | – | – | 0.794 µM | – | –
42 | COc1ccccc1-c1c[nH]c2nc(NC3CCN(C(=O)Cc4ccc(F)cc4F)CC3)ncc12 [Compound 26] | – | – | > 50.1 µM | > 50.1 µM | > 10 fold | –
